Assay results taken from ChEMBL document CHEMBL1201862, “PubChem BioAssay data set” (2004).
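Where inhibition never reached the appropriate level, the endpoint shown equals the highest concentration tested. Otherwise, values were interpolated linearly from a five-concentration, 48-hour dose response in 96-well plates. Here, GI50 denotes the concentration required for 50% inhibition of growth.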 Calls of active or inactive are those of the source. Cut-off read from the data, not from the text of the source: active = GI50 up to about 1.1 µM and inactive = higher.

Legend:
Test in all cases: growth of human tumour cells (NCI), 48 h
SN12C = tested on: SN12C
COLO 205 = tested on: COLO 205
IGROV-1 = tested on: IGROV-1
HCC 2998 = tested on: HCC 2998
HCT-15 = tested on: HCT-15
MOLT-4 = tested on: MOLT-4
RPMI-8226 = tested on: RPMI-8226
SF-295 = tested on: SF-295
HL-60 = tested on: HL-60
NCI-H226 = tested on: NCI-H226
SF-268 = tested on: SF-268
EKVX = tested on: EKVX
SK-MEL-28 = tested on: SK-MEL-28
NCI-H460 = tested on: NCI-H460
UACC-62 = tested on: UACC-62
NCI-H522 = tested on: NCI-H522
UO-31 = tested on: UO-31

| Compound | GI50 (SN12C) | GI50 (COLO 205) | GI50 (IGROV-1) | GI50 (HCC 2998) | GI50 (HCT-15) [µM] | GI50 (MOLT-4) | GI50 (RPMI-8226) | GI50 (SF-295) | GI50 (HL-60) | GI50 (NCI-H226) | GI50 (SF-268) | GI50 (EKVX) | GI50 (SK-MEL-28) | GI50 (NCI-H460) | GI50 (UACC-62) | GI50 (NCI-H522) | GI50 (UO-31) |
| --- | --- | --- | --- | --- | --- | --- | --- | --- | --- | --- | --- | --- | --- | --- | --- | --- | --- |
| CCCCCCCSCC1OC(n2cnc3c(N)ncnc32)C(O)C1O (centres undefined) | 21.8 µM (inactive) | 14 µM (inactive) | 14.6 µM (inactive) | 20.9 µM (inactive) | 4.5 | 19.1 µM (inactive) | 12.6 µM (inactive) | 18.7 µM (inactive) | 3.01 µM (inactive) | > 100 µM (inactive) | 34.2 µM (inactive) | 20.5 µM (inactive) | > 100 µM (inactive) | 16.5 µM (inactive) | – | – | – |
| CC(=O)C(CN(C)C)C(c1ccccc1)c1c(O)c2ccccc2oc1=O (centres undefined) | > 100 µM (inactive) | > 100 µM (inactive) | > 100 µM (inactive) | > 100 µM (inactive) | > 100 | > 100 µM (inactive) | > 100 µM (inactive) | > 100 µM (inactive) | > 100 µM (inactive) | > 100 µM (inactive) | > 100 µM (inactive) | > 100 µM (inactive) | > 100 µM (inactive) | > 100 µM (inactive) | > 100 µM (inactive) | > 100 µM (inactive) | – |
| O=c1cc2ccccc2nn1Cc1ccccc1Cl | > 100 µM (inactive) | > 100 µM (inactive) | > 100 µM (inactive) | > 100 µM (inactive) | > 100 | – | 92.5 µM (inactive) | > 100 µM (inactive) | – | > 100 µM (inactive) | > 100 µM (inactive) | > 100 µM (inactive) | > 100 µM (inactive) | > 100 µM (inactive) | 89.7 µM (inactive) | – | 29.5 µM (inactive) |
| COc1cc(Cc2cc(OC)c(OC)c(OC)c2)ccc1O | 21.8 µM (inactive) | 77.8 µM (inactive) | > 100 µM (inactive) | 27 µM (inactive) | 3.28 | 4.27 µM (inactive) | 8.39 µM (inactive) | 4.57 µM (inactive) | 2.27 µM (inactive) | 93.1 µM (inactive) | 36.3 µM (inactive) | 27 µM (inactive) | 39.7 µM (inactive) | – | 9.95 µM (inactive) | 9.31 µM (inactive) | 52.6 µM (inactive) |
| CCOc1ccc(C2=C(Cl)c3cc(OC)c(OC)cc3C2Cl)cc1 (centres undefined) | 42.4 µM (inactive) | 63.5 µM (inactive) | 72.4 µM (inactive) | – | 27.1 | 19.5 µM (inactive) | 21.3 µM (inactive) | 35 µM (inactive) | 13.4 µM (inactive) | 30.8 µM (inactive) | 59.6 µM (inactive) | 66.7 µM (inactive) | 87.5 µM (inactive) | 29.3 µM (inactive) | 26.2 µM (inactive) | 17.2 µM (inactive) | 45 µM (inactive) |
| COc1ccc(C=O)c(NC(=O)C(C)C)c1 | 23 µM (inactive) | 18.2 µM (inactive) | > 100 µM (inactive) | – | 33.3 | 21.3 µM (inactive) | 20.5 µM (inactive) | 32.7 µM (inactive) | – | > 10 µM (inactive) | 36.2 µM (inactive) | 31.6 µM (inactive) | 69.2 µM (inactive) | > 100 µM (inactive) | 30.3 µM (inactive) | 15.9 µM (inactive) | 33.3 µM (inactive) |
| CCOC(=O)/C=C/n1c2ccccc2c(=O)c2cc(OC)ccc21 | > 100 µM (inactive) | > 100 µM (inactive) | > 100 µM (inactive) | > 100 µM (inactive) | 39.9 | > 100 µM (inactive) | – | > 100 µM (inactive) | > 100 µM (inactive) | > 100 µM (inactive) | > 100 µM (inactive) | > 100 µM (inactive) | > 100 µM (inactive) | > 100 µM (inactive) | > 100 µM (inactive) | 54.2 µM (inactive) | > 100 µM (inactive) |
| C[C@]12CCC(=O)CC1CCCC2=O (some centres undefined) | > 100 µM (inactive) | > 100 µM (inactive) | > 100 µM (inactive) | > 100 µM (inactive) | > 100 | > 100 µM (inactive) | > 100 µM (inactive) | > 100 µM (inactive) | > 100 µM (inactive) | – | > 100 µM (inactive) | > 100 µM (inactive) | > 100 µM (inactive) | > 100 µM (inactive) | > 100 µM (inactive) | > 100 µM (inactive) | > 100 µM (inactive) |
| S=C(N/N=C/c1ccccc1)NC12CC3CC(CC(C3)C1)C2 | 17.7 µM (inactive) | 27 µM (inactive) | > 100 µM (inactive) | – | 47.8 | 12.3 µM (inactive) | 22 µM (inactive) | 41 µM (inactive) | 31.2 µM (inactive) | 97.7 µM (inactive) | 31.9 µM (inactive) | 71.4 µM (inactive) | 59.3 µM (inactive) | 39.5 µM (inactive) | 27.5 µM (inactive) | 29.5 µM (inactive) | > 100 µM (inactive) |
| O=c1cc[nH]c2c1ccc1ncccc12 | > 100 µM (inactive) | > 100 µM (inactive) | > 100 µM (inactive) | > 100 µM (inactive) | > 100 | > 100 µM (inactive) | – | – | > 100 µM (inactive) | > 100 µM (inactive) | > 100 µM (inactive) | > 100 µM (inactive) | > 100 µM (inactive) | > 100 µM (inactive) | > 100 µM (inactive) | > 100 µM (inactive) | > 100 µM (inactive) |
| CCCCCC(=O)c1ccc2[nH]c3c(C)cc([N+](=O)[O-])c(C)c3c2c1 | > 100 µM (inactive) | 59.6 µM (inactive) | – | > 100 µM (inactive) | > 100 | > 100 µM (inactive) | > 100 µM (inactive) | 94.6 µM (inactive) | 98.2 µM (inactive) | > 100 µM (inactive) | > 100 µM (inactive) | > 100 µM (inactive) | > 100 µM (inactive) | 82 µM (inactive) | – | > 100 µM (inactive) | > 100 µM (inactive) |
| COC1(Cc2ccccc2)C(=O)c2ccccc2N1C(C)=O (centres undefined) | > 100 µM (inactive) | > 100 µM (inactive) | > 100 µM (inactive) | > 100 µM (inactive) | > 100 | > 100 µM (inactive) | > 100 µM (inactive) | > 100 µM (inactive) | > 100 µM (inactive) | – | – | > 100 µM (inactive) | > 100 µM (inactive) | > 100 µM (inactive) | > 100 µM (inactive) | – | > 100 µM (inactive) |
| O=C(O)C(Cl)(Cl)Cl | > 100 µM (inactive) | > 100 µM (inactive) | > 100 µM (inactive) | > 100 µM (inactive) | > 100 | > 100 µM (inactive) | > 100 µM (inactive) | > 100 µM (inactive) | > 100 µM (inactive) | > 100 µM (inactive) | > 100 µM (inactive) | > 100 µM (inactive) | > 100 µM (inactive) | > 100 µM (inactive) | – | – | > 100 µM (inactive) |
| COC(=O)C1=C(OC)c2cc3c(cc2C(c2cc(OC)c(OC)c(OC)c2)C1C(=O)OC)OCO3 (centres undefined) | > 100 µM (inactive) | 38.7 µM (inactive) | > 100 µM (inactive) | > 100 µM (inactive) | > 100 | 30.5 µM (inactive) | 40.6 µM (inactive) | 59.7 µM (inactive) | > 100 µM (inactive) | > 100 µM (inactive) | > 100 µM (inactive) | > 100 µM (inactive) | > 100 µM (inactive) | > 100 µM (inactive) | > 100 µM (inactive) | – | > 100 µM (inactive) |
